Test results taken from PubChem BioAssay AID2060333 (Molecular Pharmacology Branch, DTP, NCI, 2025).
Where “and” joins values, the source holds several entries; their conditions need not be identical. Equal values may be shown once.

System: 845751-090-R-J2-PDC tumor spheroid viability
Experiment: Anticancer human tumor 845751-090-R-J2-PDC patient-derived head and neck squamous carcinoma cell line growth inhibition [IpAb]
Settings: spheroids with HUVEC and MSC; for viability, T/C: stronger effect = lower value
How it was run: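 Multi-cell spheroids of 60% tumour cells, 25% HUVEC and 15% MSC in ultra-low-attachment U-bottom wells, treated with agents combined with ipatasertib or abemaciclib. Half-log ranges top out near clinical Cmax, or 10 microM when Cmax is unknown.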

[1] = curve of first compound, second compound 0.01 µM
[2] = curve of first compound, second compound 0.0316 µM
[3] = curve of first compound, second compound 0.1 µM
[4] = curve of first compound, second compound 0.316 µM
[5] = curve of first compound, second compound 1 µM
[6] = second compound 0.01 µM, first compound 0.0316 µM
[7] = second compound 0.01 µM, first compound 0.1 µM
[8] = second compound 0.0316 µM, first compound 0.0316 µM
[9] = second compound 0.0316 µM, first compound 0.1 µM
[10] = second compound 0.1 µM, first compound 0.0316 µM
[11] = second compound 0.1 µM, first compound 0.1 µM
[12] = second compound 0.316 µM, first compound 0.0316 µM
[13] = second compound 0.316 µM, first compound 0.1 µM
[14] = second compound 1 µM, first compound 0.0316 µM
[15] = second compound 1 µM, first compound 0.1 µM
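Further: spheroids exposed to compounds for 7 days before readout.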
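Wherever viability, T/C is given: CTG3D luminescence normalised so that 100% = DMSO vehicle control.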

SMILES: Cn1ncnc1[C@H]1c2n[nH]c(=O)c3cc(F)cc(c23)N[C@@H]1c1ccc(F)cc1 + CCN1CCN(Cc2ccc(Nc3ncc(F)c(-c4cc(F)c5nc(C)n(C(C)C)c5c4)n3)nc2)CC1
- IC50 [1]: > 100 nM
- IC50 [2]: 73.1 nM
- IC50 [3]: > 100 nM
- IC50 [4]: 85.4 nM
- IC50 [5]: 19.6 nM
- viability, T/C (second compound 0.01 µM, first compound 0.000316 µM): 71.6%
- viability, T/C (second compound 0.01 µM, first compound 0.001 µM): 94%
- viability, T/C (second compound 0.01 µM, first compound 0.00316 µM): 91.8%
- viability, T/C (second compound 0.01 µM, first compound 0.01 µM): 83.1%
- viability, T/C [6]: 92.1%
- viability, T/C [7]: 70.9%
- viability, T/C (second compound 0.0316 µM, first compound 0.000316 µM): 74.7%
- viability, T/C (second compound 0.0316 µM, first compound 0.001 µM): 81.8%
- viability, T/C (second compound 0.0316 µM, first compound 0.00316 µM): 69.7%
- viability, T/C (second compound 0.0316 µM, first compound 0.01 µM): 78.8%
- viability, T/C [8]: 63.5%
- viability, T/C [9]: 45%
- viability, T/C (second compound 0.1 µM, first compound 0.000316 µM): 71.9%
- viability, T/C (second compound 0.1 µM, first compound 0.001 µM): 66.3%
- viability, T/C (second compound 0.1 µM, first compound 0.00316 µM): 71.3%
- viability, T/C (second compound 0.1 µM, first compound 0.01 µM): 69.7%
- viability, T/C [10]: 75.7%
- viability, T/C [11]: 59.9%
- viability, T/C (second compound 0.316 µM, first compound 0.000316 µM): 63.6%
- viability, T/C (second compound 0.316 µM, first compound 0.001 µM): 69.4%
- viability, T/C (second compound 0.316 µM, first compound 0.00316 µM): 72.8%
- viability, T/C (second compound 0.316 µM, first compound 0.01 µM): 55%
- viability, T/C [12]: 57.8%
- viability, T/C [13]: 49.3%
- viability, T/C (second compound 1 µM, first compound 0.000316 µM): 58.8%
- viability, T/C (second compound 1 µM, first compound 0.001 µM): 84.5%
- viability, T/C (second compound 1 µM, first compound 0.00316 µM): 57.7%
- viability, T/C (second compound 1 µM, first compound 0.01 µM): 57.1%
- viability, T/C [14]: 46.4%
- viability, T/C [15]: 37.1%

SMILES: CCCS(=O)(=O)Nc1ccc(F)c(C(=O)c2c[nH]c3ncc(-c4ccc(Cl)cc4)cc23)c1F + CCN1CCN(Cc2ccc(Nc3ncc(F)c(-c4cc(F)c5nc(C)n(C(C)C)c5c4)n3)nc2)CC1
- IC50 [1]: 590 nM
- IC50 [2]: 681 nM
- IC50 [3]: 454 nM
- IC50 [4]: 582 nM
- IC50 [5]: 907 nM
- viability, T/C [6]: 95%
- viability, T/C [7]: 70.8%
- viability, T/C (second compound 0.01 µM, first compound 0.316 µM): 52.4%
- viability, T/C (second compound 0.01 µM, first compound 1 µM): 50.7%
- viability, T/C (second compound 0.01 µM, first compound 3.16 µM): 35%
- viability, T/C (second compound 0.01 µM, first compound 10 µM): 24.7%
- viability, T/C [8]: 86.4%
- viability, T/C [9]: 64.9%
- viability, T/C (second compound 0.0316 µM, first compound 0.316 µM): 66.6%
- viability, T/C (second compound 0.0316 µM, first compound 1 µM): 43.4%
- viability, T/C (second compound 0.0316 µM, first compound 3.16 µM): 30.9%
- viability, T/C (second compound 0.0316 µM, first compound 10 µM): 20.5%
- viability, T/C [10]: 65%
- viability, T/C [11]: 60.2%
- viability, T/C (second compound 0.1 µM, first compound 0.316 µM): 58.8%
- viability, T/C (second compound 0.1 µM, first compound 1 µM): 30.9%
- viability, T/C (second compound 0.1 µM, first compound 3.16 µM): 23.2%
- viability, T/C (second compound 0.1 µM, first compound 10 µM): 29.5%
- viability, T/C [12]: 74.2%
- viability, T/C [13]: 65.7%
- viability, T/C (second compound 0.316 µM, first compound 0.316 µM): 63.4%
- viability, T/C (second compound 0.316 µM, first compound 1 µM): 38.6%
- viability, T/C (second compound 0.316 µM, first compound 3.16 µM): 28.6%
- viability, T/C (second compound 0.316 µM, first compound 10 µM): 23%
- viability, T/C [14]: 81.5%
- viability, T/C [15]: 81.2%
- viability, T/C (second compound 1 µM, first compound 0.316 µM): 70.3%
- viability, T/C (second compound 1 µM, first compound 1 µM): 47.4%
- viability, T/C (second compound 1 µM, first compound 3.16 µM): 38.1%
- viability, T/C (second compound 1 µM, first compound 10 µM): 32.1%

SMILES: Cc1nc(NC(=O)N2CCCC2C(N)=O)sc1-c1ccnc(C(C)(C)C(F)(F)F)c1 (configuration not stated)
- viability, T/C (compound 0.0316 µM): 79.1% and 55.6%
- viability, T/C (compound 0.1 µM): 54.8% and 65.7%
- viability, T/C (compound 0.316 µM): 36.8% and 46.5%
- viability, T/C (compound 1 µM): 25.4% and 25%
- viability, T/C (compound 3.16 µM): 17.9% and 18.6%
- viability, T/C (compound 10 µM): 10.7% and 14.8%
- IC50 (curve of compound): 138 nM and 262 nM
